The values that follow come from PMC5550016, “Aminophosphinates against Helicobacter pylori ureolysis—Biochemical and whole-cell inhibition characteristics” (PLoS ONE, 2017).

Molecules are shown by their SMILES. “And” between values parts separate entries of the source, which are not always exact repeats. Equal entries are not always repeated. Where two headings read alike, the source gives them in different places.

In data set [1] the target is purified urease from Sporosarcina pasteurii (SPU). On the set-up: method as in PMID 18717581, PMID 20684601, PMID 21559954, PMID 25699141. Conditions: read-out: Ki against SPU; cited from earlier work.
For data set [2], the system named is human mammary gland MCF-10A. Briefly: Sulforhodamine B antiproliferative assay, MCF-10A. It counts as cell-based. Conditions: compound 0.5 mM, 72 h, read-out: % Proliferation inhibition ± SD. As to the method: (§1) The BALB/3T3 cell line was cultured in Dulbecco MEM (Gibco, Scotland) supplemented with 10% (v/v) FBS (Sigma-Aldrich, Poznań, Poland) and 2 mM L-glutamine (Sigma-Aldrich, Poznań, Poland). The MCF-10A cell line was cultured in F-12 Nutrient mixture supplemented with 5% (v/v) horse serum (both Gibco, Scotland), 0.05 μg/mL cholera toxin, 10 μg/mL insulin, 0.5 μg/mL hydrocortisone, and 20 ng/mL EGFH (all Sigma-Aldrich, Poznań, Poland). The Eph4-Ev cell line was cultured in Dulbecco MEM supplemented with 2 mM L-glutamine, 10% (v/v) calf bovine serum (ATCC Rockville, Maryland, USA) and puromycin (Sigma-Aldrich, Poznań, Poland). The HEC A10 cell line was cultured in OPTI-MEM (IIET, Wroclaw, Poland) supplemented with 2 mM L-glutamine and 5% (v/v) FBS. All culture media were additionally supplemented with antibiotics: 100 U/mL penicillin and 100 μg/mL streptomycin (both Polfa-Tarchomin, Poland). During all experiments, cells were maintained in a humid atmosphere at 37°C and 5% CO2 and passaged twice a week using EDTA-Trypsin (pH 8; IIET, Wroclaw, Poland) solution as a detachment agent.
(§2) This assay was used as previously described with minor modifications. Briefly, 24 h before adding the tested compounds, cells were seeded in 96-well plates (Sarstedt, Germany) in appropriate culture medium with 10^5 […] (100 μL/well). Cells were treated with each compound in at least four concentrations in the range from 500–4 μM for 72 h. Next, cells were fixed with 50 μL/well of 50% (w/v) trichloroacetic acid (Avantor Performance Materials, Gliwice, Poland). After a 1-hour incubation, the plates were washed several times with tap water, and 50 μL of 0.4% (w/v) solution of sulforhodamine B (Sigma-Aldrich, Germany) in 1% (v/v) acetic acid (Avantor Performance Materials, Gliwice, Poland) was added to each well. After a 30-min incubation at room temperature, unbound dye was washed out with 1% (v/v) acetic acid, whereas bound dye was solubilized with 10 mM unbuffered TRIS (Avantor Performance Materials, Gliwice, Poland) solution. The entire procedure was performed using an EL-406 washing station (BioTek Instruments, USA). Next, absorbance at 540 nm was measured using a Synergy H4 Hybrid Reader (BioTek Instruments, USA). Compounds at each concentration were tested in triplicate in a single experiment, and each experiment was repeated three times independently. The results were calculated using the Prolab-3 system based on Cheburator 0.4 software and was presented as proliferation inhibition percentages at the highest concentration used.

For data set [3], the target named is T1, purified recombinant urease from H. pylori (Helicobacter pylori, UniProt B5Z674).
T1 construct: plasmid pGEM::ureOP, which encodes the entire urease gene cluster, was used to produce recombinant H. pylori urease; made in house; host or cells: E. coli Rosetta2 (DE3) + pGEM::ureOP
Briefly: Inhibition of purified recombinant H. pylori urease (phenol-hypochlorite, Lineweaver-Burk). It counts as biochemical. The note with it: Ki, 50 mM phosphate buffer pH 7.5, 37°C, 0.1–2.5 mM urea; competitive reversible inhibition. The procedure: The kinetic parameters of urease were determined by measuring the initial rates of the reactions in 50 mM phosphate buffer (pH 7.5) at 37°C. Ammonia was routinely quantified by the phenol hypochlorite method as reported previously.
Inhibition studies were conducted by initiating the enzymatic reaction with the addition of the enzyme into assay mixtures (200 μL total volume) containing increasing concentrations of inhibitors and 0.1–2.5 mM urea. After 15 min of incubation at 37°C, the reaction was stopped by adding phenol-hypochlorite reagents and the absorbance of the formed indophenol blue complexes was measured at 650 nm. The Ki values were determined from Lineweaver-Burk plots after testing at least five inhibitor concentrations in a range that depended on their inhibitory strength. The concentration of inhibitor that caused the loss of 50% of the enzyme’s activity (IC50) was determined from the measurements that were performed at a urea concentration of 0.6 mM and calculated using the linear regression of the urease activity versus the logarithm of the inhibitor concentrations.
The values of Ki and IC50 for all analyzed compounds were calculated using the appropriate equations in GraphPad Prism 5. Errors were reported with two significant digits, and each measured parameter was given with the same number of decimal places as its error [32].

Data set [4] relates to mouse fibroblasts BALB/3T3. Briefly: Sulforhodamine B antiproliferative assay, BALB/3T3. The note with it: compound 0.5 mM, 72 h, read-out: % Proliferation inhibition ± SD. It counts as cell-based. The procedure: as §1, §2
For data set [5], the system named is murine mammary gland epithelium Eph4-Ev. Briefly: Sulforhodamine B antiproliferative assay, Eph4-Ev. It counts as cell-based. The note with it: Mus musculus, compound 0.5 mM, 72 h, read-out: % Proliferation inhibition ± SD. As to the method: as §1, §2
Data set [6] addresses T2, urease in intact H. pylori J99 (Helicobacter pylori, UniProt P69997).
T2 construct: In the intact H. pylori J99 cells, the urease susceptibility profile was similar to that of E. coli (pGEM::ureOP); endogenous in cells
The data set is described as follows: Urease inhibition in whole cells of H. pylori J99. It counts as cell-based.

The subject of data set [7] is immortalized murine endothelial cell line from peripheral lymph node HEC A10. Briefly: Sulforhodamine B antiproliferative assay, HEC A10. It counts as cell-based. The note with it: Mus musculus, compound 0.5 mM, 72 h, read-out: % Proliferation inhibition ± SD. As to the method: as §1, §2
For data set [8], the target named is T3, urease in intact E. coli (pGEM::ureOP) cells (Helicobacter pylori, UniProt B5Z674).
T3 construct: plasmid pGEM::ureOP, which encodes the entire urease gene cluster, was used to produce recombinant H. pylori urease; expressed in transfected cells; host or cells: E. coli Rosetta2 (DE3) transformed with pGEM::ureOP
Briefly: Urease inhibition in whole cells of E. coli + pGEM::ureOP. The note with it: IC50 exceeding 2 mM considered not active. It counts as cell-based. The procedure:
The expression strain E. coli + pGEM::ureOP was cultured in 150 mL of LB broth (Biocorp, Poland) with 100 μg/mL ampicillin (Polfa, Tarchomin, Poland) at 37°C and induced with IPTG (0.75 mM) and Ni^2+ (0.75 mM) during the exponential growth phase, which was determined by the OD600 measurements (OD600 = 0.6). Further expression was conducted for 24 h at 22°C. The bacterial culture (1 mL) was harvested via centrifugation (2 min, 20 376 x g, 37°C) and washed three times with PBS. The pellets from 1-mL samples of the expression cell culture were resuspended in 100 μL of PBS. The hydrolysis of urea that is catalyzed by whole bacterial cells was performed in 96-well plates (Rotilabo, U-profile). The reaction progress curves were obtained by the addition of bacterial cells (1×10^9 CFU/mL final concentration) into mixtures (300 μL final volume) that contained 5 mM urea and various inhibitor concentrations that depended on their inhibitory strength. Alternatively, the reaction was initiated via the addition of a concentrated solution of urea after a 120-min preincubation of bacterial cells with the inhibitor. Samples (50 μL) of the reaction mixture were removed after the appropriate reaction time. The enzymatic reactions in the samples were terminated via the introduction of 100 μL of phenol-sodium nitroprusside solution, immediately followed by the addition of 100 μL of NaOH-hypochlorite solution. The absorption of indophenol blue was measured at 650 nm using a TECAN-Sunrise absorbance reader equipped with a gradient filter and Magellan software. The IC50 values were determined from the linear regression of the urease activity versus the logarithm of the inhibitor concentration. The reaction was studied in the absence and in the presence of the inhibitor. The influence of dimethylformamide (DMF), which was used as a solvent for several compounds, was also determined.

The target in data set [9] is purified urease from Proteus mirabilis (PMU). On the set-up: method as in PMID 18717581, PMID 20684601, PMID 21559954, PMID 25699141. The note with it: read-out: Ki against PMU; cited from earlier work.
Details of data set [10]: method as in PMID 9508511. The note with it: pH 2; cited from earlier work.
The mark [11] stands for this setting: cells grown with urea, 2 h of preincubation with inhibitors in PBS under microaerobic conditions, read-out: IC502h PBS.
The mark [12] stands for this setting: cells grown with urea, 2 h of preincubation with inhibitors in growth medium under microaerobic conditions, read-out: IC502h medium.
The mark [13] stands for this setting: cells grown with urea, without preincubation, read-out: IC500.
[14] abbreviates: cells grown without urea, 2 h of preincubation with inhibitors in PBS under microaerobic conditions, read-out: IC502h PBS.
Where [15] appears, read: cells grown without urea, without preincubation, read-out: IC500.
The mark [16] stands for this setting: IC500, without preincubation of cells with inhibitory compounds, 30-min reactions, 5 mM urea.
Where [17] appears, read: IC502h PBS, 2 h of preincubation with inhibitors in PBS.

T2 sequence (Q9ZMZ4 whole entry): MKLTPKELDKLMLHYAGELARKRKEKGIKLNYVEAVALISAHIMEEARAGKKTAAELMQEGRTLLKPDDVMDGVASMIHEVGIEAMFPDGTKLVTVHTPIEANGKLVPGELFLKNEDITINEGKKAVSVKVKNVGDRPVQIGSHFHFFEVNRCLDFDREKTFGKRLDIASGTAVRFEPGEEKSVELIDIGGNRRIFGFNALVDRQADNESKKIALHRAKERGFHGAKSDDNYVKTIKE
T2 sequence (P69997 whole entry): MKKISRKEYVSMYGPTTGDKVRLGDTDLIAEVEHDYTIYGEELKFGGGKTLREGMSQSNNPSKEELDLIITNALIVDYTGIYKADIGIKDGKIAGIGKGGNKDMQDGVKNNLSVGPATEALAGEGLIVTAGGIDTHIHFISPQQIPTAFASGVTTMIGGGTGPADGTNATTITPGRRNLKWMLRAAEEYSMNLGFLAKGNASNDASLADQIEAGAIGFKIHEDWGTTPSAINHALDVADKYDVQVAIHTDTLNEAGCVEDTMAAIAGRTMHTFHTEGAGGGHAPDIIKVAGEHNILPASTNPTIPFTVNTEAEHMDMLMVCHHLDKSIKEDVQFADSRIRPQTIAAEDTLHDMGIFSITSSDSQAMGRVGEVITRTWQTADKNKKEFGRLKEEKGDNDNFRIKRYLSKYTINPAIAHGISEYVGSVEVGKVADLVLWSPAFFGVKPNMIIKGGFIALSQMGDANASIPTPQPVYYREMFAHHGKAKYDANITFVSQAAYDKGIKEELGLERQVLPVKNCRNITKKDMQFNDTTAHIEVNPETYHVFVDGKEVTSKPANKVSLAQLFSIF
T3 sequence (B5Z674 whole entry, looked up): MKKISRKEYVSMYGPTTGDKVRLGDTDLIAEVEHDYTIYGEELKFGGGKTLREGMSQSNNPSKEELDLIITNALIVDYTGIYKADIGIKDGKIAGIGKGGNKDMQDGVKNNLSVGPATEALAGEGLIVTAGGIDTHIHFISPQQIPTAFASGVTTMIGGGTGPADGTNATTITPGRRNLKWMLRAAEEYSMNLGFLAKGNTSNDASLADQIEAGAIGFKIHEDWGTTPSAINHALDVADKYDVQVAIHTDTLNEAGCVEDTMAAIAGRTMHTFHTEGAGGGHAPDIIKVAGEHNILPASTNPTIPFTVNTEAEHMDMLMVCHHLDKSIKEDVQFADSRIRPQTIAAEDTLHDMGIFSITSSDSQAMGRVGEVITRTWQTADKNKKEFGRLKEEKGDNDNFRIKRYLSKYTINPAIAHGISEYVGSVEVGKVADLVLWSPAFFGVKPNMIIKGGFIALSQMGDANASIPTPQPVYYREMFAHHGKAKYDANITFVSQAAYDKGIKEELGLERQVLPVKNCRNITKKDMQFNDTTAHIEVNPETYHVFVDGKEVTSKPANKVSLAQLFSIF
T1 sequence (B5Z674 whole entry, looked up): as above

Take `CNCP(=O)(O)CO` [Compound 4, N-methylaminomethyl-P-hydroxymethylphosphinic acid]: the Ki is 430 nM in data set [1] and 1030 nM in data set [3]. For the same compound, the inhibition at 500 µM in data set [2], in data set [4], in data set [5] and in data set [7] was 0% each time. Besides, the IC50 in data set [6] (setting [11]) was 373 ± 48 µM; in data set [6] (setting [12]), 207 ± 11 µM; in data set [6] (setting [13]) it was 465 ± 42 µM; in [6] (setting [14]), 676 ± 23 µM; in [6] (setting [15]) it was 341 ± 41 µM; in [8] (setting [16]) it was 759 ± 106 µM. Besides, the IC50 in [8] (setting [17]) amounted to 430 ± 63 µM.
In the case of `CCCCCCNCP(=O)(O)CN` [Compound 13, N-n-hexylaminomethyl-P-aminomethylphosphinic acid], the inhibition constant Ki was 200 nM in data set [9]; 290 nM and 294 nM in [3]. The inhibition at 500 µM in data set [2] turned out to be 0.5 ± 0.4%; in data set [4], 6.5 ± 3.6%; in data set [5], 0%; in data set [7], 0%. Also, the IC50 in [6] (setting [11]) turned out to be 608 ± 23 µM; in data set [6] (setting [12]) it was 205 ± 15 µM; in data set [6] (setting [13]), 510 ± 16 µM; in data set [6] (setting [14]) it was 742 ± 55 µM; in data set [6] (setting [15]), 597 ± 19 µM; in [8] (setting [16]) it was 186 ± 30 µM. Besides, the IC50 in data set [8] (setting [17]) stood at 16.9 ± 2.2 µM.
As to `NP(N)(=O)NC(=O)c1ccc(F)cc1` [fluorofamide, N-(diaminophosphinyl)-4-fluorobenzamide], the half-life in [10] was 5 min.
